According to patent US6998392B2, “Formulation to treat or prevent parasitic infection” (MTI Meta Tech Inc., priority 2003, dated 2006):

Test system: Giardia lamblia (WB strain) trophozoites
Assay: Growth of Giardia lamblia trophozoites during 24 hr and 48 hr incubation in vitro (live and dead counts)
Assay type: cell-based
Conditions: for Reduction of live trophozoites compared to control cultures: 48 hr incubation, n=3
Method: Methods for Evaluating the Effect of Ganglioside Enriched Preparation and Ganglioside Fractions on Growth of Giardia lamblia Trophozoites in vitro. The following method was used for preparation of culture medium containing ganglioside. A preparation containing gangliosides was vortexed and sonicated (Sonic 300 Dismembrator™, Artek System Corp.) in 10 ml of TYI-S-33 culture medium, and further diluted by adding 990 ml of culture medium. This stock culture medium containing a known concentration of gangliosides was filtered in succession through Whatman™ No. 1 filter paper, 0.8 μm, 0.45 μm (Milli-Fil-P.F.™ Millipore Corp.), and 0.22 μm (Sterivex-GS™ filters with filling bell, Millipore Corp) filters connected to a peristaltic pump. This stock solution was kept at −30° C. and was diluted on the day of inoculation.
G. lamblia (WB strain) trophozoites were cultured in Diamond's TYI-S-33 (Diamond et al., 1978.). G. lamblia trophozoites (5×10^5) were inoculated in 12.5 cm^2 tissue culture flasks in the total volume of […]. Nutrient stock solution containing gangliosides was diluted to provide a concentration of ganglioside (as N-Acetyl neuraminic acid amounts, NANA) at 0 (control), 0.001, 0.01, 1, 2, and 4 μg/ml. The cultures were incubated for 24 and 48 hr at 37° C. in 5% CO2, and the number of live and dead (no flagellar movement) trophozoites determined using a hemocytometer.
The following method was used for preparation of culture medium containing ganglioside fraction. Total lipids were extracted from the ganglioside enriched preparation using the Folch method (Folch et al., 1957). The ganglioside containing upper phase was transferred and the lower phase was washed once with Folch upper phase solution (chloroform/methanol/water, 3/48/47 by vol.). The combined ganglioside containing fractions were passed through Sep-Pak™ C18 reverse-phase cartridges (Waters Corporation, Milford, Mass., USA), eluted with methanol and chloroform and methanol 2:1 (v/v), and dried completely under vacuum at 23° C. using a rotary evaporator (Williams et al., 1980). Ganglioside (NANA) content was measured as described by Suzuki (1964). Gangliosides were then diluted using the culture medium and filtered as described above.
G. lamblia trophozoites (5×10^5) were incubated for 24 hr and 48 hr with ganglioside fraction at the concentration of 0 (control), 4, 8, 10, 12, 14, 16 and 20 μg/ml in 12.5 cm^2 tissue culture flasks as described above.
In vitro. This study was performed to determine if Fraction A is directly toxic to the parasite. Several dilutions of Fraction A was added to the media at the concentration of 0, 0.001, 0.01, 0, 1, 1, 2, and 4 ug/ml and incubated for 24 hours and 48 hours after inoculation with 500,000 Giardia lamblia trophozoites. […]

II^(NeuAc)2-LacCer [GD3]
Reduction of live trophozoites compared to control cultures (10 μg/ml (NANA)): 25% | Reduction of live trophozoites compared to control cultures (20 μg/ml (NANA)): 55% | Live trophozoites as a percent of control versus concentration (48 hour incubation, in words (FIG. 12)): decrease as a percent of control in a dose-dependent manner | Dead trophozoites as a percentage of live trophozoites versus concentration (48 hour incubation, in words (FIG. 13)): increase as a percentage of live trophozoites
